# Results published in article PMC11236204 (PLOS Pathogens, 2024).
# Several values for one entry are separate records, joined by “and”; a condition that tells them apart may be missing. Identical values can stand only once. Like-named read-outs stand apart in the source and are kept apart here. Peptide text beside a SMILES is read from it. * marks the point of attachment. X1 = CCCCCCCCCCCCCCCC(=O)OCC(C*)OC(=O)CCCCCCCCCCCCCCC; Palmitoyl = CCCCCCCCCCCCCCCC(=O)*
# Columns and labels:
# RVFV MP-12 [1] = assay type: cell-based, Rift Valley fever virus; set-up: relative RVFV infection in neurons treated with TLR2 ligands, Rep 1 / relative RVFV infection in neurons treated with TLR2 ligands, Rep 2: unit not given here
# RVFV MP-12 [2] = assay type: cell-based, Rift Valley fever virus; conditions: 24h
# RVFV-DiD = assay type: cell-based, Rift Valley fever virus; conditions: 1h
# [3] = test system: VSV-RVFV (recombinant VSV expressing RVFV glycoproteins Gn and Gc); assay type: cell-based, vesicular stomatitis virus / RVFV ZH501 glycoproteins
# RVFV MP-12 [4] = assay type: cell-based, Rift Valley fever virus; conditions: for RVFV RNA after lipopeptide pretreatment: 10μg/mL for 4h
# RVFV MP-12 [5] = assay type: cell-based, Rift Valley fever virus; conditions: 10μg/mL
# RVFV MP-12 [6] = assay type: cell-based, Rift Valley fever virus
# RVFV MP-12 [7] = test system: RVFV MP-12
# RVFV MP-12 [8] = assay type: cell-based, Rift Valley fever virus; remark: listed apart in the source
# RVFV ZH501 [9] = test system: RVFV ZH501; set-up: species or system mouse (C57BL/6); conditions: mouse, in vivo
# RVFV MP-12 [10] = assay type: cell-based, Rift Valley fever virus; remark: listed apart in the source
# RVFV MP-12 [11] = assay type: cell-based, Rift Valley fever virus; remark: listed apart in the source
# RVFV MP-12 [12] = assay type: cell-based, Rift Valley fever virus; conditions: 10μg/mL; remark: listed apart in the source
# RVFV ZH501 [13] = test system: RVFV ZH501; set-up: species or system mouse (C57BL/6); conditions: mouse, in vivo; remark: listed apart in the source
# RVFV MP-12 [14] = assay type: cell-based, Rift Valley fever virus; conditions: 10μg/mL for 4h; 15h
# RVFV ZH501 [15] = test system: RVFV ZH501; set-up: species or system mouse (C57BL/6); conditions: mouse, in vivo; remark: listed apart in the source
# VSV-GFP [16] = conditions: 2 h
# [17] = test system: VSV-RVFV (recombinant VSV expressing RVFV glycoproteins Gn and Gc); assay type: cell-based, vesicular stomatitis virus / RVFV ZH501 glycoproteins; conditions: 14h
# RVFV ZH501 [18] = test system: RVFV ZH501; set-up: species or system mouse (C57BL/6); conditions: mouse, in vivo; remark: listed apart in the source
# VSV-GFP [19] = assay type: cell-based, vesicular stomatitis virus
# RVFV ZH501 [20] = conditions: mouse, in vivo
# [21] = test system: Ifit2, Cxcl10, Tnfa, Cxcl1 RNA; assay type: cell-based, rat
# La Crosse virus (LACV) = assay type: cell-based
compound,measurement,setting,value
2'3'-c-di-AMP,Rep 1 rel infection,RVFV MP-12 [1],1.031 and 1.083
same,Rep 2 rel infection,RVFV MP-12 [1],1.123 and 1.1792
"CO/C1=C\C(C)=C\[C@@H](C)[C@@H](O)[C@@H](C)C/C(C)=C/C=C/[C@H](OC)[C@@H]([C@@H](C)[C@@H](O)[C@H](C)[C@@]2(O)C[C@@H](O)[C@H](C)[C@@H](C(C)C)O2)OC1=O [BafA, bafilomycin A1]",RVFV infection after pulse at pH 7.6,RVFV MP-12 [2],blocked infection
same,RVFV infection in acid-washed cells (pH 5.2),RVFV MP-12 [2],did not block infection
same,"number, intensity, and area of DiD puncta",RVFV-DiD,decreased
CCNCc1nc2c(N)nc3ccccc3c2n1CC(C)(C)O [Gardiquimod],neurotoxicity in screen (relative survival of neurons),rat cortical neurons,neurotoxic
CC(C)Cn1cnc2c(N)nc3ccccc3c21 [Imiquimod],neurotoxicity in screen (relative survival of neurons),rat cortical neurons,neurotoxic
CCCCCCCCCCCCCCCC(=O)N[C@@H](CSCC(COC(=O)CCCCCCCCCCCCCCC)OC(=O)CCCCCCCCCCCCCCC)C(=O)N[C@@H](CO)C(=O)N[C@@H](CCCCN)C(=O)N[C@@H](CCCCN)C(=O)N[C@@H](CCCCN)C(=O)N[C@@H](CCCCN)C(=O)O (some centres unmarked) [Pam3CSK4] (Palmitoyl-C(X1)SKKKK-OH),VSV-RVFV replication,[3],decreased VSV-RVFV replication
same,RVFV RNA after lipopeptide pretreatment,RVFV MP-12 [4],decreased RVFV RNA
same,RVFV RNA levels in the presence of TPCA-1 or IKK 16,"RVFV MP-12 [4]; 10μg/mL, 24h",significantly decreased
same,viral RNA bound to cells,RVFV MP-12 [5],did not change
same,internalized RVFV RNA,RVFV MP-12 [6],no difference
same,Mouse cortical neurons Rel. infection,RVFV MP-12 [7]; 0.016 ug/mL,0.9744 and 0.948 and 1.028
same,Mouse cortical neurons Rel. infection,RVFV MP-12 [7]; 0.08 ug/mL,1.018 and 0.9269 and 0.9842
same,Mouse cortical neurons Rel. infection,RVFV MP-12 [7]; 0.4 ug/mL,1.0033 and 0.9456 and 0.9907
same,Mouse cortical neurons Rel. infection,RVFV MP-12 [7]; 2 ug/mL,1.058 and 0.9085 and 1.0272
same,Mouse cortical neurons Rel. infection,RVFV MP-12 [7]; 10 ug/mL,0.3619 and 0.3566 and 0.3035
same,Rep 1 rel infection,RVFV MP-12 [8],1.242 and 0.7928
same,Rep 2 rel infection,RVFV MP-12 [8],1.2338 and 0.6802
same,decrease of viral replication in the brain,RVFV ZH501 [9],more than 5 logs
same,internalized RVFV RNA,RVFV MP-12 [10],no difference
same,Neutralization (relative RVFV infection),RVFV MP-12 [11],1.27 and 1.194 and 1.159 and 1.08
same,"RVFV infection, neutralization condition",RVFV MP-12 [11]; 24 hours,failed to neutralize RVFV
same,viral RNA bound to cells,RVFV MP-12 [12],did not change
same,RVFV titers in the liver,RVFV ZH501 [13],significantly decreased
same,RVFV titers,RVFV MP-12 [14],3.7 x 10^4 PFU / mL and 3.2 x 10^4 PFU / mL
same,RVFV infection in DMSO treated cells,RVFV MP-12 [2]; 10μg/mL,inhibited RVFV infection
same,"RVFV infection in acid-washed, BafA-treated cells","RVFV MP-12 [2]; 10μg/mL, pH 5.2",decreased RVFV infection
same,Neurologic disease at 3dpi? No (number of mice),RVFV ZH501 [15],2 and 3
same,Neurologic disease at 3dpi? Yes (number of mice),RVFV ZH501 [15],0
same,mice with signs of severe (neurologic) disease,RVFV ZH501 [15],zero out of three and 0/3
same,IC50 against VSV,VSV-GFP [16],> 10 µg/mL
same,VSV-RVFV replication,[17],decreased VSV-RVFV replication
same,infection relative to vehicle in screen,RVFV MP-12 [1],below 60 % of vehicle
same,"relative RVFV infection in neurons treated with TLR2 ligands, Rep 1",RVFV MP-12 [1],26.2716
same,"relative RVFV infection in neurons treated with TLR2 ligands, Rep 2",RVFV MP-12 [1],51.9474
same,RVFV nucleoprotein immunofluorescence in brain and liver,RVFV ZH501 [18],decreased viral replication in the brain and liver
same,hemorrhages caused by RVFV in the liver (H & E),RVFV ZH501 [18],reduced hemorrhages
same,VSV RNA replication,VSV-GFP [19],unchanged
same,survival of mice treated with Pam3CSK4 alone,RVFV ZH501 [20],all mice treated with Pam3CSK4 alone survived
same,"number, intensity, and area of DiD puncta",RVFV-DiD,decreased
"NC(=O)Nc1sc(-c2ccc(F)cc2)cc1C(N)=O [TPCA-1, 2-[(aminocarbonyl)amino]-5-(4-fluorophenyl)-3-thiophenecarboxamide]",transcription of NF-κB target genes Tnfa and Cxcl1 after Pam3CSK4 stimulation,[21],blunted transcription
FSL-1,"relative RVFV infection in neurons treated with TLR2 ligands, Rep 1",RVFV MP-12 [1],105.077
same,"relative RVFV infection in neurons treated with TLR2 ligands, Rep 2",RVFV MP-12 [1],120.652
IKK 16,transcription of NF-κB target genes Tnfa and Cxcl1 after Pam3CSK4 stimulation,[21],blunted transcription
Pam2CSK4,Rel. VSV-RVFV RNA,[3],0.4225 and 0.2236 and 0.215
same,VSV-RVFV replication,[3],"also reduced VSV-RVFV infection, although it was significantly weaker than Pam3CSK4"
same,Rel. Fold change RVFV RNA,RVFV MP-12 [4],0.741 and 1.189
same,RVFV RNA after lipopeptide pretreatment,RVFV MP-12 [4],no antiviral effect
same,Rel. LACV RNA,La Crosse virus (LACV),0.9766 and 0.5238 and 0.6648 and 0.9475
same,antiviral effect on LACV (qPCR and microscopy),La Crosse virus (LACV),no antiviral effect
same,Rel. Fold change Cxcl1 RNA,[21],1030.97 and 740.202
same,Rel. Fold change Tnfa RNA,[21],157.572 and 100.256
same,"inflammatory gene transcription (Tnfa, Cxcl1, Cxcl10)",[21]; 10μg/mL for 4h,induced inflammatory gene transcription
same,RVFV infection in neurons in screen,RVFV MP-12 [1],did not decrease RVFV infection
same,Rep 1 rel infection,RVFV MP-12 [1],1.076 and 1.061
same,"relative RVFV infection in neurons treated with TLR2 ligands, Rep 1",RVFV MP-12 [1],106.055
same,"relative RVFV infection in neurons treated with TLR2 ligands, Rep 2",RVFV MP-12 [1],122.343
same,VSV RNA replication,VSV-GFP [19],no antiviral effect
